Read-outs that look alike come from different tables or passages of the source.
Key:
[1] = target: T1, mushroom tyrosinase (Agaricus bisporus, UniProt C7FF04); experiment: Circular dichroism analysis of the secondary structure of mushroom tyrosinase; settings: 0.1 mM; for Turn % of tyrosinase: enzyme alone 7; for α-helix % of tyrosinase: enzyme alone 16; for β-sheet % of tyrosinase: enzyme alone 33; for Random coil % of tyrosinase: enzyme alone 44
Method: The structural changes in tyrosinase after incubation with ED and PAED were plotted in Fig. 5. […] We observed that the control tyrosinase enzyme has 16% α-helix, 33% β-sheets, 7% turn, and 44% random coil. After the interaction with 4a, the amount of α-helix changed to 15% and β-sheets changed to 35%. On the other hand, after the plasma treatment of 4a the amount of α-helix changed to 17% and β-sheets changed to 31%. While, after interacting with 4b, the amount of α-helix is 16.0%, β-sheets 29%, turn 10%, and random coil is 45.0%. However, plasma-activated 4b interacts differently with tyrosinase enzyme, showing 16% α-helix, 33% β-sheets, 6% turn, and 45% random coil. When 6a ED interacted with tyrosinase enzyme, we observed 20% α-helix, 25% β-sheets, 11.0% turn, and 44% random coil. However, 6a PAED interacts with tyrosinase enzyme, the α-helix changed to 19%, β-sheets 28%, turn 9%, and random coil 44%. […] To obtain further detail on the interaction of the ED with tyrosinase enzyme, we studied the molecular docking. For the CD spectroscopic studies[65][66][67] a J-815 spectrophotometer (Jasco, Japan) was used, equipped with a Peltier system that controlled the temperature. (1S)-(+)-10-camphorsulfonic acid (Aldrich, Milwaukee, WI) with a molar extinction coefficient of 34.5 M/cm at 285 nm and a 2.36 M/cm molar ellipticity (θ) at 295 nm was used for the CD calibrations. The samples were pre-equilibrated at the desired temperature for 15 min, and the scan speed was fixed for adaptative sampling (error F 0.01) with a response time of 1 sec and a 1 nm bandwidth. The secondary structure of the mushroom tyrosinase was monitored by using a 1.0 cm path length cuvette. The mushroom tyrosinase (0.2 mg/ml) was prepared in phosphate buffer (20 mM) at pH 6.8 for CD analysis. We used the 0.1 mM concentration of all derivatives in 1 ml buffer solution, with or without 10 min plasma treatment. All spectra were collected in triplicate from 200 to 250 nm and the background was corrected against the buffer (blank). The percentages of secondary structures of proteins were calculated using inbuilt Jasco software.
Target sequence in this assay (C7FF04 2-392): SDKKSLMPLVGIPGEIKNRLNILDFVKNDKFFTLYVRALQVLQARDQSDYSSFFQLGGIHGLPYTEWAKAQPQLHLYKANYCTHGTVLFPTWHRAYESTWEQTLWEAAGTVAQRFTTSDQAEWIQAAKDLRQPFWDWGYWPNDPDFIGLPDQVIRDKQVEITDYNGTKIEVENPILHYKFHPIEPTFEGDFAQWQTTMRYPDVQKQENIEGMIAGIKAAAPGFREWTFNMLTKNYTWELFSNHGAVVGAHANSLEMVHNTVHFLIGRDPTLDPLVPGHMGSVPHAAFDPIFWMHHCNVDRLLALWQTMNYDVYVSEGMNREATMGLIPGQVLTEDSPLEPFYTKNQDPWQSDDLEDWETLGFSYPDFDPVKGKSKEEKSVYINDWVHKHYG

[2] = test system: B16F10 cells; experiment: Intracellular melanin content measurement; assay type: cell-based, murine; settings: for melanin, % of control (normalized to 100%): as-synthesized ED, no α-MSH, concentration not given
Method: Melanoma (1.5 × 10^5) cells were seeded in cell culture plates and allowed to attach for 24 hr. Then each eugenol derivative was added and tested separately for melanin activation after 24 hr of incubation. After incubation, cells were detached using trypsin/EDTA and centrifuged at 1000 rpm for 5 min to collect the cell pellets. The cell pellets were solubilized in 1N NaOH at 60 °C for 1 hr. The melanin content was measured spectrophotometrically at 405 nm wavelength using a microplate reader (BioTek, synergy HT)[56]. […] Plasma-treated and non-plasma-treated ED (4b and 6a) were added to the cells, pre-incubated with or without α-MSH (100 nM) for a further 24 hr and melanin content was assayed as described above. Kojic acid can inhibit and α-MSH can stimulate the melanin in the cells, therefore we used them as negative and positive controls.

[3] = target: T1, mushroom tyrosinase; experiment: Mushroom tyrosinase inhibition assay (L-DOPA, dopachrome at 492 nm); assay type: biochemical; design: purchased Sigma Chemical Co. USA; settings: mean ± SD, read-out: Tyrosinase inhibitory activity IC50 (converted)
Method: To determine the action of ED and PAED, we checked the mushroom tyrosinase inhibitory activity in a cell-free environment. […] Moreover, after plasma treatment for different time intervals, we observed that inhibition activity of 4a, 4b, 4d and 6a was improved more as compared to without treatment. […] However, we observed the highest relative improvement in IC50 value of compound 4b among all ED compounds at 10 min plasma treatment. […] Therefore, we used the 4b and 6a compounds for further investigations, based on the decrease in IC50 value to a global minimum of the experiment after plasma treatment.
The mushroom tyrosinase was used for in vitro bioassays as described previously with some modifications. Briefly, 140 μl of phosphate buffer (20 mM, pH 6.8), 20 μl of mushroom tyrosinase (30 U/ml), and 20 μl of the inhibitor solution were placed in the wells of a 96-well plate. After pre-incubation for 10 min at room temperature, 20 μl of L-DOPA (3,4-dihydroxyphenylalanine) (0.85 mM) was added and the plate was further incubated at 25 °C for 20 min. Subsequently the absorbance of dopachrome was measured at 492 nm using a micro plate reader (OPTI Max, Tunable). Kojic acid was used as a reference inhibitor. The extent of inhibition by the test compounds was expressed as the […] necessary to achieve 50% inhibition (IC50). Each concentration was analyzed in three independent experiments run in triplicate. The IC50 values were determined by the data analysis and graphing software, Origin.
Target sequence in this assay (C7FF04 1-392): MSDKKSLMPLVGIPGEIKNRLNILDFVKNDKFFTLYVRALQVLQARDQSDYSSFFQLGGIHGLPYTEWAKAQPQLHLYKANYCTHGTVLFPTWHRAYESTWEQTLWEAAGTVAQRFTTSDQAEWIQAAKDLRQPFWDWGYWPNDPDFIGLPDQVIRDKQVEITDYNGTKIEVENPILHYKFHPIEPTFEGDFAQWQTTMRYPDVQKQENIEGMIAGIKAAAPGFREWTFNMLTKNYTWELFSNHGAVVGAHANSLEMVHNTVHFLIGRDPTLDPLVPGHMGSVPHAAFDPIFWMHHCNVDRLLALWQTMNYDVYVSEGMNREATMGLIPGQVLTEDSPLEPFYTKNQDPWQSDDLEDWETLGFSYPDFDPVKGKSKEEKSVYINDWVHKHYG

[4] = tyrosinase + 10 min plasma-treated compound
[5] = Con: as-synthesized, before plasma treatment, cell-free
[6] = compound after 3 min N2 APPJ plasma treatment
[7] = compound after 5 min N2 APPJ plasma treatment
[8] = compound after 10 min N2 APPJ plasma treatment
[9] = tyrosinase + as-synthesized compound (0 min plasma)

Row | Turn % of tyrosinase [1, 4] [%] | α-helix % of tyrosinase [1, 4] [%] | β-sheet % of tyrosinase [1, 4] [%] | Random coil % of tyrosinase [1, 4] [%] | IC50 [3, 5] [µM] | IC50 [3, 6] [µM] | IC50 [3, 7] [µM] | IC50 [3, 8] [µM] | Turn % of tyrosinase [1, 9] [%] | α-helix % of tyrosinase [1, 9] [%] | β-sheet % of tyrosinase [1, 9] [%] | Random coil % of tyrosinase [1, 9] [%] | melting point [°C] | SMILES | melanin synthesis, % of control (100%) ([2]; 10 min plasma-treated, presence of α-MSH) [%] | melanin, % of control (normalized to 100%) [2] [%] | inhibition at 250 µg/mL ([2]; Mus musculus, B16-F10, 250 μg/ml, absence of α-MSH, negative control, read-out: inhibition of melanin synthesis compared to the control) [%] | melanin stimulation (in words) ([2]; with or without plasma treatment, presence or absence of α-MSH (Fig. 10))
1 | 6 | 16 | 33 | 45 |  |  |  |  |  |  |  |  |  | O=C(COC(=O)c1ccc(O)cc1)Oc1ccc(C(=O)/C=C/O)cc1OCO [Plasma treated 4b] | 188 |  |  | 
2 |  |  |  |  | 41.9 | 53 | 67 | 80.9 | 4 | 16 | 35 | 45 | 99 to 101 | C=CCc1ccc(OC(=O)COC(=O)c2ccc(O)cc2O)c(OC)c1 [4c, 2-[2-methoxy-4-(prop-2-en-1-yl)phenoxy]-2-oxoethyl 2,4-dihydroxybenzoate] |  | 117 |  | 
3 |  |  |  |  | 162 | 131 | 100 | 80.9 | 7 | 15 | 33 | 45 | 148 to 151 | C=CCc1ccc(OC(=O)COC(=O)c2ccc(O)c(O)c2)c(OC)c1 [4d, 2-[2-methoxy-4-(prop-2-en-1-yl)phenoxy]-2-oxoethyl 3,4-dihydroxybenzoate] |  | 110 |  | 
4 |  |  |  |  | 53 | 215 | 201 | 156 | 6 | 15 | 33 | 46 | 107 to 109 | C=CCc1ccc(OC(=O)COC(=O)c2cc(O)cc(O)c2)c(OC)c1 [4e, 2-[2-methoxy-4-(prop-2-en-1-yl)phenoxy]-2-oxoethyl 3,5-dihydroxybenzoate] |  | 115 |  | 
5 |  |  |  |  |  |  |  |  |  |  |  |  |  | O=c1cc(CO)occ1O [Kojic acid, reference compound] |  |  | ~12 | 
6 |  |  |  |  | 18.1 | 85.3 | 103 | 142 | 3 | 15 | 37 | 45 | 86 to 88 | C=CCc1ccc(OC(=O)COC(=O)/C=C/c2ccc(Cl)cc2)c(OC)c1 [6b, 2-[2-methoxy-4-(prop-2-en-1-yl)phenoxy]-2-oxoethyl(2E)-3-(4-chloroyphenyl)prop-2-enoate] |  | 119 |  | Melanin stimulation was observed
7 | 9 | 19 | 28 | 44 |  |  |  |  |  |  |  |  |  | C=CC(=O)c1ccc(OC(=O)COC(=O)/C=C/c2ccc(O)cc2)c(OC)c1 [Plasma treated 6a] |  |  |  | 
8 |  | 17 | 31 |  | 73 | 70.1 | 58.4 | 49.7 | 5 | 15 | 35 | 45 | 70 to 72 | C=CCc1ccc(OC(=O)COC(=O)c2cccc(O)c2)c(OC)c1 [4a, 2-[2-methoxy-4-(prop-2-en-1-yl)phenoxy]-2-oxoethyl 3-hydroxybenzoate] |  | 116 |  | 

From PMC4773869, “Influence of plasma-activated compounds on melanogenesis and tyrosinase activity” (Scientific Reports, 2016)
